Legend:
[1] = target: NAMPT (Homo sapiens, UniProt P43490); test: Time-Resolved Fluorescence Resonance Energy Transfer (TR-FRET) Binding Assay of NAMPT with PRPP; details: 2 nM NAMPT, 2 nM probe, 200 uM PRPP and 2.5 mM ATP, equilibrated 16 hours
Summary of the method: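 Final mix: 2 nM NAMPT, 2 nM probe, 1 nM Tb-anti-His antibody, 200 uM PRPP, 2.5 mM ATP, 2% DMSO in 1× assay buffer. Equilibrated 16 hours before TR-FRET read, allowing possible enzymatic modification of compounds.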

[2] = target: NAMPT (human, recombinant, C-terminally His-tagged) (Homo sapiens, UniProt P43490); test: Time-Resolved Fluorescence Resonance Energy Transfer (TR-FRET) Binding Assay of NAMPT; details: 6.8 nM NAMPT, 200 nM probe, equilibrated 3 hours, absence of substrates
Summary of the method: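 Recombinant C-terminally His-tagged human NAMPT (6.8 nM) incubated 3 h at room temperature with 200 nM Oregon Green 488–labelled nicotinamide-competitive probe and 1 nM Tb-anti-His antibody in HEPES pH 7.5, 2% DMSO. TR-FRET ratio Em520/Em495 normalized to controls; IC50 from four-parameter logistic fit.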

Sequence of NAMPT (human, recombinant, C-terminally His-tagged) (P43490 whole entry): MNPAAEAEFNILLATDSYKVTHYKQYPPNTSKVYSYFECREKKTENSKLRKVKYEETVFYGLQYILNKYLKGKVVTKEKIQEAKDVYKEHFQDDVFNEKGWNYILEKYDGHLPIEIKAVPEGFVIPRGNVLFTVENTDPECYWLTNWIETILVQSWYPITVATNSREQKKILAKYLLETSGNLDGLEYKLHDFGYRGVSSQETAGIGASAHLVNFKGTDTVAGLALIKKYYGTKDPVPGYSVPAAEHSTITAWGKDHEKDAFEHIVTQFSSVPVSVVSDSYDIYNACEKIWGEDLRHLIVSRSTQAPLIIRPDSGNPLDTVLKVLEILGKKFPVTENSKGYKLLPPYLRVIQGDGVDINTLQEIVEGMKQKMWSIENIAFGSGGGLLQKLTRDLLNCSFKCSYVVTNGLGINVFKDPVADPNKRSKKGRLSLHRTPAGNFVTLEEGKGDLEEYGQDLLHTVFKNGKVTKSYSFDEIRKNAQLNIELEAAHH
Sequence of NAMPT (P43490 whole entry): as above

Row | Structure (SMILES) | IC50 [1] [nM] | IC50 [2] [nM]
1 | O=C(Nc1ccc(OC2CCN(C(=O)C3CCOC3)CC2)cc1)[C@H]1CCN(c2cccnc2)C1 (stereo partly drawn) [Example 15, (3S)-1-(pyridin-3-yl)-N-(4-{[1-(tetrahydrofuran-3-ylcarbonyl)piperidin-4-yl]oxy}phenyl)pyrrolidine-3-carboxamide] | 2.49 | 1660
2 | CC(C)C(=O)N1CCC(c2ccc(NC(=O)[C@H]3CCN(c4cccnn4)C3)cc2)CC1 [Example 310, (3S)—N-{4-[1-(2-methylpropanoyl)piperidin-4-yl]phenyl}-1-(pyridazin-3-yl)pyrrolidine-3-carboxamide] | 5.37 | 456
3 | Cc1ccncc1N1CC(C(=O)Nc2ccc(C3CCN(C(=O)C(C)(C)O)CC3)cc2)C1 [Example 72, N-{4-[1-(2-hydroxy-2-methylpropanoyl)piperidin-4-yl]phenyl}-1-(4-methylpyridin-3-yl)azetidine-3-carboxamide] | 7.34 | 6.54
4 | O=C(Nc1ccc(OC2CCN(C(=O)Cc3ccccc3F)CC2)cc1)C1CN(c2ccnnc2)C1 [Example 308, N-[4-({1-[(2-fluorophenyl)acetyl]piperidin-4-yl}oxy)phenyl]-1-(pyridazin-4-yl)azetidine-3-carboxamide] | 18.4 | 36.9
5 | Cc1ncccc1N1CC(C(=O)Nc2ccc(C3CCN(C(=O)C4CCCCC4)CC3)cc2)C1 [Example 196, N-{4-[1-(cyclohexylcarbonyl)piperidin-4-yl]phenyl}-1-(2-methylpyridin-3-yl)azetidine-3-carboxamide] | 98.5 | 83.8
6 | CCC(C)(C)C(=O)N1CCC(Oc2ccc(NC(=O)C3CN(c4ccnnc4)C3)cc2)CC1 [Example 300, N-(4-{[1-(2,2-dimethylbutanoyl)piperidin-4-yl]oxy}phenyl)-1-(pyridazin-4-yl)azetidine-3-carboxamide] | 39.1 | 64.2
7 | O=C(Nc1ccc(OC2CCN(C(=O)c3ccc(F)cc3)CC2)cc1)C1CN(c2cccnn2)C1 [Example 230, N-(4-{[1-(4-fluorobenzoyl)piperidin-4-yl]oxy}phenyl)-1-(pyridazin-3-yl)azetidine-3-carboxamide] | 0.843 | 158
8 | COCC(=O)N1CCC(c2ccc(NC(=O)C3CN(c4cccnc4C)C3)cc2)CC1 [Example 195, N-{4-[1-(methoxyacetyl)piperidin-4-yl]phenyl}-1-(2-methylpyridin-3-yl)azetidine-3-carboxamide] | 94.1 | 305
9 | Cc1ccsc1C(=O)N1CCC(c2ccc(NC(=O)C3CN(c4cccnc4C)C3)cc2)CC1 [Example 171, 1-(2-methylpyridin-3-yl)-N-(4-{1-[(3-methylthiophen-2-yl)carbonyl]piperidin-4-yl}phenyl)azetidine-3-carboxamide] | 37.9 | 19.7
10 | CCCCC(=O)N1CC(Oc2ccc(NC(=O)C3CN(c4ccnnc4)C3)cc2)C1 [Example 210, N-{4-[(1-pentanoylazetidin-3-yl)oxy]phenyl}-1-(pyridazin-4-yl)azetidine-3-carboxamide] | 38.3 | 31.7
11 | Cc1ncccc1N1CC(C(=O)Nc2ccc(C3CCN(C(=O)CN4CCOCC4)CC3)cc2)C1 [Example 164, 1-(2-methylpyridin-3-yl)-N-{4-[1-(morpholin-4-ylacetyl)piperidin-4-yl]phenyl}azetidine-3-carboxamide] | 124 | 987
12 | Cc1ncccc1N1CC(C(=O)Nc2ccc(C3CCN(C(=O)C(C)C)CC3)cc2)C1 [Example 29, N-{4-[1-(2-methylpropanoyl)piperidin-4-yl]phenyl}-1-(2-methylpyridin-3-yl)azetidine-3-carboxamide] | 16.7 | 79.8
13 | CC(C)(C(=O)N1CCC(Oc2ccc(NC(=O)C3CN(c4cccnn4)C3)cc2)CC1)c1ccccc1 [Example 217, N-(4-{[1-(2-methyl-2-phenylpropanoyl)piperidin-4-yl]oxy}phenyl)-1-(pyridazin-3-yl)azetidine-3-carboxamide] | 1.51 | 43.9
14 | CCOCCC(=O)N1CCC(Oc2ccc(NC(=O)C3CN(c4cccnc4)C3)cc2)CC1 [Example 39, N-(4-{[1-(3-ethoxypropanoyl)piperidin-4-yl]oxy}phenyl)-1-(pyridin-3-yl)azetidine-3-carboxamide] | 1.05 | 104
15 | Cc1ncccc1N1CC(C(=O)Nc2ccc(C3CCN(C(=O)CN4CCN(C)CC4)CC3)cc2)C1 [Example 173, N-(4-{1-[(4-methylpiperazin-1-yl)acetyl]piperidin-4-yl}phenyl)-1-(2-methylpyridin-3-yl)azetidine-3-carboxamide] | 154 | 524
16 | O=C(Nc1ccc(C2CCN(C(=O)C3(c4ccccc4)CC3)CC2)cc1)C1CN(c2cccnn2)C1 [Example 381, N-(4-{1-[(1-phenylcyclopropyl)carbonyl]piperidin-4-yl}phenyl)-1-(pyridazin-3-yl)azetidine-3-carboxamide] | 1.13 | 15.1
17 | Cn1cccc1C(=O)N1CCC(Oc2ccc(NC(=O)C3CN(c4cccnc4)C3)cc2)CC1 [Example 64, N-[4-({1-[(1-methyl-1H-pyrrol-2-yl)carbonyl]piperidin-4-yl}oxy)phenyl]-1-(pyridin-3-yl)azetidine-3-carboxamide] | 0.927 | 55.2

The remaining compounds from weak to strong by IC50 [1], led by results:

Row | IC50 [1] [nM] | IC50 [2] [nM] | Structure (SMILES)
18 | 0.832 | 3010 | CC(C)CCN1CCC(Oc2ccc(NC(=O)C3CN(c4cccnc4)C3)cc2)CC1 [Example 77, N-(4-{[1-(3-methylbutyl)piperidin-4-yl]oxy}phenyl)-1-(pyridin-3-yl)azetidine-3-carboxamide]
19 | 0.73 | 185 | O=C(Nc1ccc(OC2CCN(C(=O)c3ccc(F)c(F)c3)CC2)cc1)C1CN(c2cccnn2)C1 [Example 234, N-(4-{[1-(3,4-difluorobenzoyl)piperidin-4-yl]oxy}phenyl)-1-(pyridazin-3-yl)azetidine-3-carboxamide]
20 | 0.675 | 33.7 | O=C(Nc1ccc(OC2CCN(C(=O)c3cccs3)CC2)cc1)C1CN(c2cccnc2)C1 [Example 61, 1-(pyridin-3-yl)-N-(4-{[1-(thiophen-2-ylcarbonyl)piperidin-4-yl]oxy}phenyl)azetidine-3-carboxamide]
21 | 0.666 | 41.6 | Cc1ccc(C(=O)N2CCC(Oc3ccc(NC(=O)C4CN(c5cccnc5)C4)cc3)CC2)s1 [Example 62, N-[4-({1-[(5-methylthiophen-2-yl)carbonyl]piperidin-4-yl}oxy)phenyl]-1-(pyridin-3-yl)azetidine-3-carboxamide]
22 | 0.641 | 469 | CC(C)Cn1cc(-c2ccc(C(=O)NC3CN(c4cccnn4)C3)s2)cn1 [Example 315, 5-[1-(2-methylpropyl)-1H-pyrazol-4-yl]-N-[1-(pyridazin-3-yl)azetidin-3-yl]thiophene-2-carboxamide]
23 | 0.64 | 574 | O=C(Nc1ccc(C2CCN(CC3CCCC3)CC2)cc1)C1CN(c2cccnc2)C1 [Example 88, N-{4-[1-(cyclopentylmethyl)piperidin-4-yl]phenyl}-1-(pyridin-3-yl)azetidine-3-carboxamide]
24 | 0.611 | 26.4 | CC(C)CC(=O)N1CCC(c2ccc(NC(=O)C3CN(c4cccnn4)C3)cc2)CC1 [Example 320, N-{4-[1-(3-methylbutanoyl)piperidin-4-yl]phenyl}-1-(pyridazin-3-yl)azetidine-3-carboxamide]
25 | 0.606 | 27.9 | Cc1ccsc1C(=O)N1CCC(Oc2ccc(NC(=O)C3CN(c4cccnc4)C3)cc2)CC1 [Example 59, N-[4-({1-[(3-methylthiophen-2-yl)carbonyl]piperidin-4-yl}oxy)phenyl]-1-(pyridin-3-yl)azetidine-3-carboxamide]
26 | 0.569 | 37.8 | O=C(Nc1ccc(C2CCN(C(=O)c3ccc(O)cc3)CC2)cc1)C1CN(c2cccnn2)C1 [Example 344, N-{4-[1-(4-hydroxybenzoyl)piperidin-4-yl]phenyl}-1-(pyridazin-3-yl)azetidine-3-carboxamide]
27 | 0.526 | 955 | O=C(Nc1ccc(OC2CCN(CCC3CC3)CC2)cc1)C1CN(c2cccnc2)C1 [Example 82, N-(4-{[1-(2-cyclopropylethyl)piperidin-4-yl]oxy}phenyl)-1-(pyridin-3-yl)azetidine-3-carboxamide]
28 | 0.503 | 1210 | O=C(Nc1ccc(OC2CCN(CC3CCOC3)CC2)cc1)C1CN(c2cccnc2)C1 (centres unmarked) [Example 83, 1-(pyridin-3-yl)-N-(4-{[1-(tetrahydrofuran-3-ylmethyl)piperidin-4-yl]oxy}phenyl)azetidine-3-carboxamide]
29 | 0.497 | 452 | CN(C)CCC(=O)N1CCC(Oc2ccc(NC(=O)C3CN(c4cccnc4)C3)cc2)CC1 [Example 67, N-(4-{[1-(N,N-dimethyl-beta-alanyl)piperidin-4-yl]oxy}phenyl)-1-(pyridin-3-yl)azetidine-3-carboxamide]
30 | 0.486 | 16.5 | O=C(Nc1ccc(C2CCN(C(=O)CC3CCCC3)CC2)cc1)C1CN(c2cccnc2)C1 [Example 101, N-{4-[1-(cyclopentylacetyl)piperidin-4-yl]phenyl}-1-(pyridin-3-yl)azetidine-3-carboxamide]
31 | 0.254 | 60.6 | CN1CCN(CC(=O)N2CCC(c3ccc(NC(=O)C4CN(c5cccnc5)C4)cc3)CC2)CC1 [Example 113, N-(4-{1-[(4-methylpiperazin-1-yl)acetyl]piperidin-4-yl}phenyl)-1-(pyridin-3-yl)azetidine-3-carboxamide]

From patent publication US8975398B2, “NAMPT inhibitors” (AbbVie Inc., priority 2012, dated 2015)
